Where two headings read alike, the source gives them in different places. Where a SMILES comes first, the peptide text is derived from it. Bridges are numbered along the chain shown (N, C = ends). Roman numbers before positions name the chains, in order. Where no end group is shown, it is not given here.
Tests used:
Format in all cases: cell-based, Candida albicans
[1] = tested on: C.albicans SC5413
Experimental: (§1) To determine the candidacidal activity of the peptides, we used Candida strains obtained from the Culture collection of antimicrobial resistant microbes at Seoul Women’s University in Korea. These included three Candida albicans (CCARM 14020, 14021, 14022), Candida guillermondi and Candida tropicalis. In addition, Candida albicans SC5413 was kindly provided by Dr Jeong-Yoon Kim at the Department of Microbiology & Molecular Biology, Chungnam University, Korea. Yeast were cultured overnight at 30°C in 10 ml of yeast extract-peptone-dextrose (YPD) broth (Qbiogene), then diluted in 10 ml of YPD broth to OD600 = 0.2 and grown for an additional 4 h with shaking at 30°C until OD600 = 0.8 in order to obtain mid-log phase cultures. The peptides (Hst 5, P113, HHP1, HHP2, PH1, PH2, di-PH1, di-PH2, WP1, di-WP2, di-15Hc and di-18Hc) in this study were synthesized by using standard solid-phase synthesis protocols and were purified by reversed-phase high-performance liquid chromatography at Anygen Inc. (Korea). FITC-labeled peptides (F-Hst5, F-P113, F-HHP1, F-di-PH2, F-di-WP2 and F-di-18Hc) were also synthesized by 6-aminohexnoic acid linker at Anygen (Korea) for confocal experiments.
(§2) The candidacidal activities of the peptides were tested by using standard microdilution plate assays, radial diffusion assays and broth dilution assay slightly modified from the procedure recommended by the National Committee for Clinical Laboratory Standards. For the candidacidal assays, C. albicans cells were grown in YPD medium and washed twice with 10 mM sodium phosphate buffer (NaPB; Na2HPO4, NaH2PO4, pH 7.4). The cells (1 x 10^6) were then mixed with different concentrations of peptides and incubated at 30°C with constant shaking for 60 min. For energy depletion experiments, cells were pre-incubated with 10 mM NaPB containing 5 mM NaN3 at 30°C for 60 min before the addition of peptides. The cell suspensions were diluted in 10 mM NaPB and aliquots of 500 cells were spread onto YPD agar plates then incubated for 24 h at 30°C to visualize the surviving colonies. Cell survival was expressed as a percentage of that for the control, and the loss of viability was calculated as [1 x (number of colonies from peptide-treated cells/number of colonies from control cells)] x 100. Candidacidal assays were performed in triplicate. For the radial diffusion assay, C. albicans cells were grown in YPD medium overnight and washed twice with 10 mM NaPB. Washed yeast-phase C. albicans cells (1 x 10^6 CFU) were trapped in thin underlay gels containing 9 mM sodium phosphate, 1 mM sodium citrate buffer, 1% (wt/vol) agarose (A6013; Sigma), and 0.3 mg of Sabouraud dextrose broth (Difco)/ml. After incubation at 37°C for 3 h, a 10 ml overlay gel of 1% agarose and 6% Sabouraud dextrose broth was poured on the underlay gel and then the plates were incubated overnight at 37°C. The clear-zone diameters were measured to the nearest 0.1 mm and graphed against the peptide concentration. Zone diameters were expressed in units (0.1 mm = 1 unit). For the broth dilution assay, the Candida strains were cultured in LYM broth for 18 h at 30°C. The numbers of yeasts were counted using a hemocytometer. Stock peptide solutions were prepared to a concentration of 320 μg/ml in distilled water, and were then serially diluted twofold, to 5 μg/ml. 100 μl aliquots of the diluted culture media containing candida cells (1 x 10^3) were dispensed into the wells of 96-well polypropylene microtiter plates (Costar 3879, Corning, NY), to which peptide solution (11 μl) was then added. In the experiments conducted to assess the candidacidal activity of peptides in the presence of salt, we used LYM supplemented with 150 mM NaCl for the culture medium, which was mixed with the peptide solution. The antifungal activities were evaluated after 24 h of incubation at 30°C by the observation of visible turbidity the wells. […]

[2] = tested on: C.albicans CCARM 14020
Experimental: as §1, §2

[3] = tested on: C.albicans CCARM 14021
Experimental: as §1, §2

[4] = tested on: C.albicans CCARM 14022
Experimental: as §1, §2

[5] = NaCl 150 mM, LYM supplemented with 150 mM NaCl, 24 h at 30°C

Row | Molecule | MICs [1, 5] | MICs ([1]; SC5413, 24 h) [µg/mL] | MICs ([2]; CCARM 14020, 24 h) [µg/mL] | MICs [2, 5] | MICs ([3]; CCARM 14021, 24 h) [µg/mL] | MICs [3, 5] | MICs ([4]; CCARM 14022, 24 h) [µg/mL] | MICs [4, 5]
1 | AKRHHGYKRKFH-NH2 [P113] | 32< μg/ml | 4 to 8 | 4 to 8 | 32< μg/ml | 4 to 8 | 32< μg/ml | 8 to 16 | 32< μg/ml
2 | C[C@H](NC(=O)[C@H](Cc1c[nH]cn1)NC(=O)[C@H](CO)NC(=O)[C@@H](N)CC(=O)O)C(=O)N[C@@H](CCCCN)C(=O)N[C@@H](CCCNC(=N)N)C(=O)N[C@@H](Cc1c[nH]cn1)C(=O)N[C@@H](Cc1c[nH]cn1)C(=O)NCC(=O)N[C@@H](Cc1ccc(O)cc1)C(=O)N[C@@H](CCCCN)C(=O)N[C@@H](CCCNC(=N)N)C(=O)N[C@@H](CCCCN)C(=O)N[C@@H](Cc1ccccc1)C(=O)N[C@@H](Cc1c[nH]cn1)C(=O)N[C@@H](CCC(=O)O)C(=O)N[C@@H](CCCCN)C(=O)N[C@@H](Cc1c[nH]cn1)C(=O)N[C@@H](Cc1c[nH]cn1)C(=O)N[C@@H](CO)C(=O)N[C@@H](Cc1c[nH]cn1)C(=O)N[C@@H](CCCNC(=N)N)C(=O)NCC(=O)N[C@@H](Cc1ccc(O)cc1)C(=O)O [Hst 5, Histatin 5] | 32< μg/ml | 8 to 16 | 8 to 16 | 32< μg/ml | 4 to 8 | 32< μg/ml | 8 to 16 | 32< μg/ml
3 | CC(C)C[C@H](NC(=O)CNC(=O)[C@H](Cc1c[nH]cn1)NC(=O)[C@H](Cc1c[nH]cn1)NC(=O)[C@H](CCCNC(=N)N)NC(=O)[C@H](CCCCN)NC(=O)[C@H](C)N)C(=O)N[C@@H](CC(N)=O)C(=O)N[C@@H](CSSC[C@H](NC(=O)[C@H](CC(N)=O)NC(=O)[C@H](CC(C)C)NC(=O)CNC(=O)[C@H](Cc1c[nH]cn1)NC(=O)[C@H](Cc1c[nH]cn1)NC(=O)[C@H](CCCNC(=N)N)NC(=O)[C@H](CCCCN)NC(=O)[C@H](C)N)C(=O)N[C@@H](C)C(=O)N[C@@H](CCCCN)C(=O)N[C@@H](Cc1ccccc1)C(=O)N[C@@H](Cc1c[nH]cn1)C(N)=O)C(=O)N[C@@H](C)C(=O)N[C@@H](CCCCN)C(=O)N[C@@H](Cc1ccccc1)C(=O)N[C@@H](Cc1c[nH]cn1)C(N)=O [di-PH2] (I: H-AKRHHGLNCAKFH-NH2 / II: H-AKRHHGLNCAKFH-NH2; disulfide I:9-II:9 (inferred); N-terminus assumed) | 32< μg/ml | 1 to 2 | 1 to 2 | 32< μg/ml | 1 to 2 | 32< μg/ml | 2 to 4 | 32< μg/ml

From PMC4769088, “Antifungal Activity and Action Mechanism of Histatin 5-Halocidin Hybrid Peptides against Candida ssp” (PLoS ONE, 2016)
